Results published in patent publication US20240100164A1, “REPEATED PHOTODYNAMIC THERAPY USING PHOTOSENSITIZING AGENT” (Incando Therapeutics Pte. Ltd., priority 2022, published 2024).
Where “and” joins values, the source holds several entries; their conditions need not be identical. Identical values can stand only once.

How the values were obtained:
C6 glioma [1] = assay: Orthotopic C6 glioma xenograft, 5-ALA uptake and conversion to PPIX in tumor; assay type: in vivo, Sprague Dawley rat; conditions: C6 tumor in rat striatum, histology
Protocol: C6 rat glioma cells were maintained in F12K medium (F-12K Nutrient Mixture, 1X, Gibco) supplemented with […] (Biowest), […] (Gibco), and 1% each of P/S and L/G antibiotics (Biowest) at 37° C. in a humidified incubator containing 5% CO2. Subconfluent, low passage C6 glioma cells were resuspended to single cell suspension in sterile PBS (1X, Hyclone) within two hours of xenotransplantation.
Approximately 2×10^5 cells were stereotactically injected into the striatum of rats (230-270 g, InVivos Pte Ltd) under general anaesthesia. Using a hand-held drill, a burr hole of 1 mm was drilled and cells were injected unilaterally at 3 mm lateral to Bregma and at a depth of 4 mm. Injections were conducted using borosilicate capillary glass micropipettes (A-M Systems) pulled to a tip diameter of ˜[…]. Animals were allowed to recover with daily antibiotics and analgesics for up to a week and monitored post operatively for adverse events and signs of distress in compliance with relevant animal treatment guidelines.
FIG. 10 illustrates an orthotopic xenograft model. Rat C6 glioma cells are implanted unilaterally into the striatum of Sprague Dawley rats. Tumor engraftment and growth was rapid and morphology is consistent with human high grade gliomas.

glioma cells = assay: In vitro 3D hydrogel culture, PDT induced cell death of glioma cells; assay type: cell-based; conditions: glioma cells in 3D-hydrogel incubated with 5-ALA, illuminated with LED at 630 nm
From the text: An in vitro model of light penetration into tissue was established to determine the quantitative relationship between light penetrance PDT instigated cell death. The primary parameters for light input are illumination intensity and duration of illumination. The primary parameter for PDT instigated cell death is depth (or distance from the light source to the target treatment tissue), which directly attenuates light penetration into tissue.
To evaluate PDT for treatment of gliomas and brain cancers glioma cells were propagated in a hydrogel medium in a three-dimensional (3D) culture to mimic the cellular and optical environment of the brain. A commercial 3D culture system was used to set up the culture in a linear configuration such that a point source of light could be applied to one end of a closed culture in a cylinder form. The total cellular growth volume was 1 mm×1 mm×15 mm. A 630 nm LED light source that mimics the spectral characteristics and intensity of the any of the implantable devices disclosed herein was used to illuminate embedded glioma cells and to establish the effective PDT “kill radius.”
FIGS. 9A-9B show PDT induced cell death of glioma cells using a LED light source such as any of those disclosed herein. Glioma cells were embedded in a 3D-hydrogel, incubated with study drug 5-ALA, and illuminated with a light from a LED at 630 nm as shown in FIG. 9A. […]

C6 glioma [2] = assay: Single application of PDT in orthotopic C6 glioma model (Ki67, TUNEL histology); assay type: in vivo, Sprague Dawley rat
Protocol: (§1) The implants were secured in place by suturing the overlying skin to close the surgical site. Device operation was tested briefly before closure. Six hours prior to each PDT treatment, rats were injected with 100 mg/kg 5-ALA (Synchem UG & Co. KG) prepared in sterile PBS (1X, Hyclone) via tail vein or with a vehicle control. PDT treatment was conducted under 1.5-2.5% […] isoflurane/O2 general anesthesia. Wireless powering coils such as those disclosed herein were secured to each animal's head, and each PDT treatment delivered 2.5 mW/cm2 of light over 3,600 seconds for a total fluence of 9 J/cm^2 per treatment. Any of the other treatment parameters disclosed herein may be used.
Test animals were sacrificed after 24 hours, and their brains were sectioned for histological examination. The proliferation marker Ki67 and the TUNEL assay (terminal deoxynucleotidyl transferase dUTP nick end labeling) indicative of apoptosis was used to quantify the PDT effect.
Test animals were sacrificed after 24 hours, and their brains were sectioned for histological examination. The proliferation marker Ki67 and the TUNEL assay indicative of apoptosis was used to quantify the PDT effect.

C6 glioma [3] = assay: Single vs. repeated PDT (rePDT) in orthotopic C6 glioma model, survival and tumor size; assay type: in vivo, Sprague Dawley rat
From the text: Animals were monitored daily for weight change and behavioral abnormalities ahead of xenograft induced mortality. Ethical termination via CO2 overdose was triggered in the following events: individual weight loss of greater than 20% in one day, extended cessation of motor behavior and loss of grooming; paralysis and lack of movement/lying on a side. After termination or death, individual rat brains were dissected and prepared for histological analysis by freezing in OCT compound (Tissue-Tek). Survival analysis was performed via the method of Kaplan-Meier.
as §1
Further experimentation was conducted to determine if repeated application of PDT treatment would have a cumulative effect on tumor growth and disease progression. […] If a single PDT treatment was at least 50% effective in destroying the tumor population, an inter-treatment interval of 2 days would maintain or diminish the tumor graft to at, or near starting levels. With this rationale in mind, PDT treatment was applied according to the schema shown in FIG. 12A with four treatments repeated every two days starting at day 4 after xenograft surgery.
On the day of treatment, animals received 5-ALA via tail vein injection and allowed to recover for 6 hours to allow uptake and expression of PPIX. PDT treatment was conducted under light general anaesthesia via halothane to reduce movement during PDT. […] This procedure was repeated at 2-day intervals for a total of four treatments.
FIG. 13 also illustrates survival curves for single vs repeat PDT treated animals. Sprague Dawley rats were implanted with c6 glioma cells and implanted with a wirelessly powered light source above the injection site as described. On treatment days (days 4, 6, 8, 10), animals were given the study drug 5-ALA as described and received PDT treatment. […] In contrast, 7 of 8 cohort 2 animals, which received PDT treatment on days 4, 6, 8, and 10, survived to day 70 at which point the experiment was stopped. Therefore, rePDT kills more of the tumor compared with a single treatment of PDT and increases survival time of the rodents.

[4] = in vivo; cited from earlier work

Row | Compound | PPIX signal in the tumor (conversion of 5-ALA to PPIX) (C6 glioma [1]) | tumor uptake of photosensitizer (C6 glioma [1]) | effective "kill zone" (distance from the light source) (glioma cells) | PDT effect (Ki67 and TUNEL) (C6 glioma [2]; 100 mg/kg 5-ALA tail vein 6 h before wirelessly powered light, 9 J/cm^2, sacrificed after 24 hours) | PDT effect (Ki67 and TUNEL) (C6 glioma [2]; either component singly (5-ALA without light)) | adverse effects after PDT treatment (C6 glioma [3]; 5-ALA tail vein 6 hours before PDT under general anaesthesia, four treatments at 2-day intervals) | mean survival (C6 glioma [3]; Cohort 1, PDT treatment only on day 4 (n=10)) [days] | time of mortality (C6 glioma [3]; control animals (control treatment = single PDT session)) [days] | tumor size (C6 glioma [3]; control animals (control treatment = single PDT session), necropsy) | median survival (C6 glioma [3]; control animals (n=10), Kaplan-Meier) [days] | animals living at the end of the experiment (C6 glioma [3]; rePDT) [%] | tumor cells by H&E staining (C6 glioma [3]; rePDT animals, histology) | Ki67 level (C6 glioma [3]; rePDT animals, histology, vs contralateral controls) | reduction in the tumor volume (C6 glioma [3]; rePDT vs control animals, gross estimates) [%] | animals living at the end of the experiment (day 70) (C6 glioma [3]; rePDT, PDT on days 4, 6, 8, 10, hydrochloride) | survival (day of termination of experiment) (C6 glioma [3]; repeated PDT (rePDT), four treatments every two days from day 4) [days] | systemic clearance time of 5-ALA-induced PPIX [4] [h]
1 | Cl.NCC(=O)CCC(=O)O [5-ALA, 5-amino-4-oxo-pentanoic acid hydrochloride] | Strong PPIX signal | takes up the photosensitizer drug 5-ALA | 6-8 mm | able to induce PDT | did not show the same effect | no adverse effects | ~22 | 22 to 24 | 125-200 mm^3 | 21 | 89 | trace amounts of tumor cells | low levels of Ki67 | > 99.5 | 8 out of 9 and 7 of 8 | ≥ 70 | –
2 | C=CC1=C(C)c2cc3[nH]c(cc4nc(cc5[nH]c(cc1n2)c(C)c5CCC(=O)O)C(CCC(=O)O)=C4C)c(C)c3C=C [PPIX, Protoporphyrin IX] | – | – | – | – | – | – | – | – | – | – | – | – | – | – | – | – | ≤ 24
